According to patent publication US9730906B2, “α-derivatives of cis-monounsaturated fatty acids for use as medicines” (UNIVERSITAT DE LES ILLES BALEARS, priority 2008, dated 2017):

Legend:
[1] = test system: A549 cells of human lung adenocarcinoma; test: Prevention of tumour development in nude mice injected with A549 cells; assay type: in vivo; conditions: 400 mg/kg per day oral, 2 weeks before and one month after A549 injection, compared with fatty acids not of Formula I, p<0.05
From the text: FIG. 2. Preventative effect of various fatty acids against tumour development. […] Animals received treatment before injection of tumour cells and the treatment was subsequently maintained. Animals of the control group were not treated and the volume of their tumours was taken as the reference value (100%).
To determine whether the fatty acids of the invention have applications in the prevention of the development of tumour processes, an animal cancer model was used. This model consisted of immune-deprived animals ([Crl:Nu(Ico)-Fox 1] nude mice in which non-microcytic human lung cancer cells were injected (5×10^6 A549 cells per animal). The control group (infected with cancer cells but untreated) started to develop tumours that were visible after a few days. The sizes of the tumours were measured for the first time at 10 days after implanting the tumour and measurements continued for up to 31 days after the implantation with a digital calliper. The volume of the tumours was calculated with the following equation: v=w^2×l/2 where v is the volume of the tumour, w is its width and l is the length. Preventative treatments against development of the cancer were applied. To carry out these treatments, 400 mg/kg were administered per day for 2 weeks before the injection of tumour cells. This treatment was continued for one month after the implantation of the tumour cells and the volume of the tumours in the animals was measured. Each experimental group was composed of 8 animals. Oral administration of α-derivatives of cis-monounsaturated fatty acids prevented cancer development (A549 cells of human lung adenocarcinoma) (FIG. 2). […] Therefore it was concluded that the introduction of a double bond in the cis configuration in the structure of the fatty acid is a critical factor in the prevention and treatment by fatty acids of cancer development.

[2] = Rat obesity induced by cafeteria diet, preventative pre-treatment (Table 3); assay type: in vivo, Wistar Kyoto rats; conditions: 300 mg/kg oral, after two weeks on cafeteria diet; obese control 308 ± 17, lean control 280 ± 16; * lower than obese controls, ‡ indistinguishable
Procedure: In a further experiment, the effect of various molecules at a single dose (600 mg/kg) was investigated. […] In this sense, modification on the α-carbon and the double bond in cis configuration are crucial elements for producing the therapeutic effect indicated above. […] Finally, the effect of α-derivatives of cis-monounsaturated fatty acids on the prevention of obesity was investigated. For this, a model of rat obesity induced by a cafeteria diet, where the hypercaloric food increases the weight of the animals very markedly, was used. There were various experimental groups (see Table 3), each of which consisted of 6 female Wistar Kyoto rats of 250-300 g in weight. All the animals received a standard diet for 2 weeks. In addition, 2 of the groups received an oral preventative pre-treatment of vehicle and the other groups received 300 mg/kg of the fatty acids indicated below. Afterwards, one of the control groups was maintained on a standard diet (lean control) and the other was fed on a cafeteria diet (obese control). The treated animal groups were fed on the cafeteria diet. Preventative pre-treatment was maintained for all the groups. After two weeks on these diets, the lean control group had increased their body weight by an average of 16±16 g, while the obese control group had increased their body weight by an average of 43±17 g (statistically significance difference, p<0.01).
The weight of treated animals was statistically less than the weight of obese control rats and statistically indistinguishable from that of lean control rats.

[3] = target: T1, cyclooxygenases-1 (COX-1) (Homo sapiens, UniProt P23219); test: COX-1 activity in U937 differentiated monocytes (Cayman COX-1 inhibitor screening system); assay type: cell-based; conditions: 250 μM, 6 hours; compared with fatty acids not of Formula I, p<0.05
T1 construct: endogenous in cells; host or cells: U937 differentiated monocytes
Procedure: FIG. 19A. Effect of various fatty acids in the inhibition of the activity of cyclooxygenases-1 (COX-1) (Cayman COX-1 inhibitor screening system). […] Cell cultures (U937 differentiated monocytes) were treated with the fatty acids of the invention (250 μM, 6 hours).
(§1) In an additional study on the release of various proinflammatory cytokines (IL-1b, IL-6, IL-8, IL-10) and TNF-α in U937 monocytes stimulated with bacterial lipopolysaccharide (LPS), a marked reduction in the levels of these molecules was observed after treatments with OHHD at a concentration of 250 μM and 72 h incubation (Table 4). The effect of the α-derivatives of cis-monounsaturated fatty acids (250 μM, 6 h) on the activity and expression of the COX-1 and COX-2 cyclooxygenases was investigated in the same system.

cyclooxygenase-2 (COX-2) = test: Cellular concentration of COX-2 in U937 differentiated monocytes (immunoblot); assay type: cell-based, human; conditions: 250 μM, 6 hours; compared with fatty acids not of Formula I, p<0.05
Procedure: FIG. 19B. Effect of various fatty acids in the inhibition (concentration of protein) of cyclooxygenase-2 (immunoblot of COX-2). […] Cell cultures (U937 differentiated monocytes) were treated with the fatty acids of the invention (250 μM, 6 hours).
as §1

A549 cells = test: Growth/viability of A549 lung cancer cells in culture (cell count); assay type: cell-based, human; conditions: Doses of 200 to 400 μM, A549
Procedure: FIG. 3A. Cancer cells (A549) were treated with various concentrations of OHOD and MOD11 to determine whether the effect was dependent on the concentration. […] These cells were treated with different concentrations (0-400 μM) of OHOD and MOD11 and the number of cells was determined by flow cytometry.
FIG. 3B. Cancer cells (A549) were treated with compounds indicated on the horizontal axis for 48 hours at 150 μM. Then, the cells were counted and their number and percent of untreated (control) represented on the vertical axis.
Also, a series of α-derivatives of cis-monounsaturated fatty acids were used to investigate their effectiveness in cancer treatment. Two types of experiment were performed. Firstly, the dependency of the anti-tumour effect on concentration was investigated. To perform these experiments, human lung cancer cells (A549) were cultivated in RPMI medium, supplemented with 10% foetal bovine […], 10 mM Hepes (pH 7.4), 2 mM glutamine, 2 g/l bicarbonate, 1 g/l glucose, 100 units/ml penicillin, 0.1 mg/ml streptomycin, 0.25 μg/ml Amphotericin B, at 37° C. and in the presence of 5% CO2. In a first experimental series, these cells were treated with various concentrations (0-400 μM) of OHOD and MOD11 and the number of cells was determined by flow cytometry (FIG. 3A). […] In a second series, the anti-tumour effectiveness on A549 lung cancer cells was investigated at a single concentration (150 μM) and a time of 48 hours (FIG. 3B). […] Obviously, among the previous molecules, some lacked both modifications on the α-carbon and the double bond in cis configuration (EO, HDO, ODO) and had no therapeutic effect. […]

T1 sequence (P23219 24-599): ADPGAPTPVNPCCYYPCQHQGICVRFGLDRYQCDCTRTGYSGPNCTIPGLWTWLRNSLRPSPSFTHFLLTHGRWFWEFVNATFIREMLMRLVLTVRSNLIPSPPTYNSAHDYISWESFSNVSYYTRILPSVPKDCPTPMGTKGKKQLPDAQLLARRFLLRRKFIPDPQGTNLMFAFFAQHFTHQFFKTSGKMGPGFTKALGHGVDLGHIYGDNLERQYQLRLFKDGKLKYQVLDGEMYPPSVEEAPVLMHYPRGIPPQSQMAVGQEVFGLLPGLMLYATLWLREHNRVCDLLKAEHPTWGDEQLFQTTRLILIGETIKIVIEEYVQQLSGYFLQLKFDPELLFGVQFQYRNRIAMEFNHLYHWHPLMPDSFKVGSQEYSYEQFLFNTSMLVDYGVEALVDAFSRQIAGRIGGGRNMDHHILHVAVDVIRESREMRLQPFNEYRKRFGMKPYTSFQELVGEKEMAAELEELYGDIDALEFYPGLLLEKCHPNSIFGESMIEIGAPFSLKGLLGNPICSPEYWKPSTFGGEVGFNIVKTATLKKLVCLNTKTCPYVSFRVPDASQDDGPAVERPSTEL

Compound | tumour volume (prevention of tumour development) [1] | Final weight [2] | inhibition of COX-1 activity (% of control) [3] | cellular concentration of COX-2 (% of control) (cyclooxygenase-2 (COX-2)) | effect on tumour cells at 200 to 400 μM (A549 cells)
CCCCCCCC/C=C\CCCCCCC(N)C(=O)O (stereo not drawn) [AOD, α-Amino-cis-Δ9-octadecenoic] | more significant effect | 272 ± 15* g | more significant effect | more significant effect | –
CCCCCCCC/C=C\CCCCCCC(F)C(=O)O (stereo not drawn) [FOD, α-Fluoro-cis-Δ9-octadecenoic] | more significant effect | 279 ± 13* g | more significant effect | more significant effect | –
CCCCCC/C=C\CCCCCCCCC(C)C(=O)O (stereo not drawn) [MOD11, α-Methyl-cis-Δ11-octadecenoic] | more significant effect | 274 ± 18* g | more significant effect | more significant effect | total elimination of tumour cells
CCCCCCCC/C=C\CCCCCCC(C)C(=O)O (stereo not drawn) [MOD, α-Methyl-cis-Δ9-octadecenoic] | more significant effect | 268 ± 12* g | more significant effect | more significant effect | –
CCCCCCCC/C=C\CCCCCCCCCCC(O)C(=O)O (stereo not drawn) [OHDE, α-Hydroxy-cis-Δ13-docosenoic] | more significant effect | 273 ± 15* g | more significant effect | more significant effect | –
CCCCCCCC/C=C\CCCCCCCCC(O)C(=O)O (stereo not drawn) [OHEE, α-Hydroxy-cis-Δ11-eicosenoic] | more significant effect | 264 ± 11* g | more significant effect | more significant effect | –
CCCCCC/C=C\CCCCCCCCC(O)C(=O)O (stereo not drawn) [OHOD11, α-Hydroxy-cis-Δ11-octadecenoic] | more significant effect | 269 ± 12* g | more significant effect | more significant effect | –
CCCCCCC/C=C\CCCCCCCC(S)C(=O)O (stereo not drawn) [SHOD, α-Mercapto-cis-Δ10-octadecenoic] | more significant effect | 269 ± 16* g | more significant effect | more significant effect | –
CCCCCCCC/C=C\CCCCCCC(C(=O)O)C(F)(F)F (stereo not drawn) [TFMOD, α-Trifluoromethyl-cis-Δ9-octadecenoic] | more significant effect | 278 ± 14* g | more significant effect | more significant effect | –
